The values below come from US6849653B2, “Substituted pyrazolyl benzenesulfamide compounds for the treatment of inflammation” (Pharmacia Corporation, priority 2001, dated 2005).

In test [1] the target is T1, IKK2 (IKKβ), rhIKK2 homodimer (Homo sapiens, UniProt O14920).
T1 construct: made in house; host or cells: insect cells (baculovirus; SF9)
T1 sequence (O14920 1-756): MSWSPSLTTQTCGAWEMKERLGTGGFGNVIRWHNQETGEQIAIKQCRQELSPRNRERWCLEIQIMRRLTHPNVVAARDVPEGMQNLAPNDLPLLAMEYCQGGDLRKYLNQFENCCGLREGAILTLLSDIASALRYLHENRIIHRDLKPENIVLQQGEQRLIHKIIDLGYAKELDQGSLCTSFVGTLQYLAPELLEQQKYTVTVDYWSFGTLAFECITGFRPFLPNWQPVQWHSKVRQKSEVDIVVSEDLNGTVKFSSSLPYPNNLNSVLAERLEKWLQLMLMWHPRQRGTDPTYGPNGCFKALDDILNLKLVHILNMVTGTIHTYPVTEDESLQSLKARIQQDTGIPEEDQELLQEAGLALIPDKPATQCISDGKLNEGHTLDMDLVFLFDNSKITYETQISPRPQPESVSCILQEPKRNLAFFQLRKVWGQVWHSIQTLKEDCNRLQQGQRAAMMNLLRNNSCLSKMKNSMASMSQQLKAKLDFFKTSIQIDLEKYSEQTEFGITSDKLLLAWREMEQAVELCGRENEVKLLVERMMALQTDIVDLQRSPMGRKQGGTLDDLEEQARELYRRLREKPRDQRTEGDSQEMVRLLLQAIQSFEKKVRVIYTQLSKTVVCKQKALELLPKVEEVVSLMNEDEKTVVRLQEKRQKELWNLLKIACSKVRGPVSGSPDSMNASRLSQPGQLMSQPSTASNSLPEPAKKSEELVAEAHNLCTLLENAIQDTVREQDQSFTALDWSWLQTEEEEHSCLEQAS
In words: IKKβ (IKK2) Resin Enzyme Assay. The format is biochemical. The following applies: read-out: IKK2 Resin IC 50. From the text:
(§1) cDNAs of human IKK1 and IKK2 were amplified by reverse transcriptase-polymerase chain reaction from human placental RNA (Clonetech). hIKK1 was subcloned into pFastBac HTa (Life Technologies) and expressed as N-terminal His6-tagged fusion protein. The hIKK2 cDNA was amplified using a reverse oligonucleotide primer which incorporated the peptide sequence for a FLAG-epitope tag at the C-terminus of the IKK2 coding region (DYKDDDDKD). The hIKK2:FLAG cDNA was subcloned into the baculovirus vector pFastBac. The rhIKK2 ([…]) mutant was constructed in the same vector used for wild type rhIKK2 using a QuikChange™ mutagenesis kit (Stratagene). Viral stocks of each construct were used to infect insect cells grown in 40L suspension culture. […] Cell lysates were stored at −80° C. until purification of the recombinant proteins was undertaken as described below.
Isolation of rhIKK2 Homodimer
A 10 liter culture of baculovirus-expressing IKK2 tagged with FLAG peptide was centrifuged and the cell pellet (MOI=0.1 and I=72 hrs) was re-suspended in buffer A. These cells were microfluidized, and centrifuged at 100,000×g for 45 min. Supernatant was passed over a G-25 column equilibrated with Buffer A. Protein peak was collected and incubated with anti-FLAG affinity resin on a rotator overnight in buffer B. The resin was washed in batch with 10-15 bed volumes of buffer C. Washed resin was poured into a column and rhIKK2 homodimer was eluted using 5 bed volumes of buffer B containing FLAG peptide. 5 mM DTT, 0.1% NP-40 and BSA (concentrated to 0.1% in final amount) was added to the eluted enzyme before concentrating in using an Amicon membrane with a molecular weight cut-off of 30 kDa. Enzyme was aliquoted and stored at −80° C.
IKKβ kinase activity was measured using a biotinylated IκBα peptide (Gly-Leu-Lys-Lys-Glu-Arg-Leu-Leu-Asp-Asp-Arg-His-Asp-Ser32-Gly-Leu-Asp-Ser36-Met-Lys-Asp-Glu-Glu) (American Peptide Co.). […] contained 5 μM biotinylated IκBα peptide, 0.1 μCi/reaction [γ-^33P] ATP (Amersham) (about 1×10^5 cpm), 1 μM ATP (Sigma), 1 mM DTT (Sigma), 2 mM MgCl2 (Sigma), 2 mM MnCl2 (Sigma), 10 mM NaF (Sigma), 25 mM Hepes (Sigma) buffer, pH 7.6 and 20 μl enzyme solution and […] inhibitor in a final volume of 50 μl. After incubation at 25° C. for 30 min, 150 μl resin (Dowex anion-exchange resin AG1X8 200-400 mesh) in 900 mM formate, pH 3.0 was added to each well to stop the reaction. Resin was allowed to settle for one hour and 50 ul of supernatant was removed to a Micolite-2 flat bottom plate (Dynex). 150 μl of scintillation fluid (Microscint 40) (Packard) was added to each well. Incorporation of [γ-^33P] ATP was measured using a Top-Count NXT (Packard).

The target of another test is T2, rhIKK1/IKK2 heterodimer (Homo sapiens, UniProt O14920+O15111).
T2 construct: made in house; host or cells: insect cells (baculovirus coinfection; SF9)
T2 sequence (O14920 1-756): T1 sequence (O14920 1-756)
T2 sequence (O15111 1-745): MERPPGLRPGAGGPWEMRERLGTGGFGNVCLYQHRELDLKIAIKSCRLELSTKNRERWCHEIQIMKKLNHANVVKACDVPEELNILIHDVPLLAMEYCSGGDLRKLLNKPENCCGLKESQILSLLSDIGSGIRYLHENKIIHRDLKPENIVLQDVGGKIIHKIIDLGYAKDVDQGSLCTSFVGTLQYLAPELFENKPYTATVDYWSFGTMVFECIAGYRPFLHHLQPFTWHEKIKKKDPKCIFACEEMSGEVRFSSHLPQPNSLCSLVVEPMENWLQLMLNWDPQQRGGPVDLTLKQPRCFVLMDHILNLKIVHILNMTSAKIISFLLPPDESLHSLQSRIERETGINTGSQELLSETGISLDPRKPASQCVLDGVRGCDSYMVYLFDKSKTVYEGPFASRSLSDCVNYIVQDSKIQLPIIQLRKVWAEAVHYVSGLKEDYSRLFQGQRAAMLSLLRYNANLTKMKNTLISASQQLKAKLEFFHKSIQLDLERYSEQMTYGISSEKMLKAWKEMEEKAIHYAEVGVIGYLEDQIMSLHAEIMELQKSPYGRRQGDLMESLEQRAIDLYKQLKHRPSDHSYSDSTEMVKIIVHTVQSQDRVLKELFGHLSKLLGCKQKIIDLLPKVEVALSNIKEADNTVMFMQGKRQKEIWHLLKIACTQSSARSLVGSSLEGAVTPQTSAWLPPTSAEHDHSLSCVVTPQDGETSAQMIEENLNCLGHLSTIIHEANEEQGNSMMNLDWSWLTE
The test can be described thus: IKK Heterodimer Resin Enzyme Assay. It counts as biochemical. To be noted: Table 1; values given as bins; read-out: HetD (IKK heterodimer assay values expressed as IC50).
From the text: as §1, with “([…]).” for “(DYKDDDDKD).”
Isolation of rhIKK1/IKK2 Heterodimer
The heterodimer enzyme was produced by coinfection in a baculovirus system (FLAG IKK2/IKK1 His; MOI=0.1 and I=72 hrs). Infected cells were centrifuged and the cell pellet (10.0 g) was suspended in 50 ml of buffer A. The protein suspension was microfluidized and centrifuged at 100,000×g for 45 min. Imidazole was added to the supernatant to a final concentration of 10 mM. The protein was allowed to bind 25 ml of Ni-NTA resin by mixing for 2 hrs. The protein-resin slurry was poured into a 25 ml column and washed with 250 ml of buffer A containing 10 mM imidazole followed by 125 ml of buffer A containing 50 mM imidazole. Buffer A, containing 300 mM imidazole, was then used to elute the protein. A 75 ml pool was collected and NP-40 was added to a final concentration of 0.1%. […] The protein-resin slurry was then centrifuged for 5 min at 2,000 rpm. The supernatant was collected and the resin re-suspended in 100 ml of buffer C containing 0.1% NP-40. The resin was washed with 375 ml of buffer C containing 0.1% NP-40. The protein-resin was poured into a 25 ml column and the enzyme eluted using buffer B containing FLAG peptide. Enzyme fractions (100 ml) were collected and concentrated to 20 ml using an Amicon membrane with molecular weight cut-off of 30 kDa. Bovine serum albumin was added to the concentrated enzyme to final concentration of 0.1%. The enzyme was then aliquoted and stored at −80° C.
IKK Heterodimer Resin Enzyme Assay
Resin was allowed to settle for one hour and 50 ul of supernatant was removed to a Micolite-2 flat bottom plate (Dynex). 150 μl of scintillation fluid (Microscint 40) (Packard) was added to each well. Incorporation of [γ-^33P] ATP was measured using a Top-Count NXT (Packard).

Read-outs that look alike come from different tables or passages of the source. Some results are limits rather than exact numbers.

On to `NC(=O)c1nn(-c2ccc(F)cc2)c2c1ccc1ccc(NC(=O)c3cccnc3Cl)cc12` [Example 51, 8-{[(2-chloropyridin-3-yl)carbonyl]amino}-1-(4-fluorophenyl)-1H-benzo[g]indazole-3-carboxamide], for which the IC50 in test [1] (Table 3) is at most 1000 nM.

As for `NC(=O)c1nn(-c2ccc3c(c2)OCO3)c2c1cc(Br)c1ccc(NC(=O)c3cccnc3Cl)cc12` [Example 57, 1-(1,3-benzodioxol-5-yl)-5-bromo-8-{[(2-chloropyridin-3-yl)carbonyl]amino}-1H-benzo[g]indazole-3-carboxamide], the IC50 in test [1] (Table 4, values given as bins) is at most 1000 nM.

For `NC(=O)c1nn(-c2ccc3c(c2)OCO3)c2c1ccc1ccc(NC(=O)c3ccccc3Cl)cc12` [Example 54, 1-(1,3-benzodioxol-5-yl)-8-[(2-chlorobenzoyl)amino]-1H-benzo[g]indazole-3-carboxamide], the IC50 in test [1] (Table 4, values given as bins) is at most 1000 nM.

On to `NC(=O)c1nn(-c2ccc(F)cc2)c2c1ccc1ccc(NC(=O)c3ccncc3Cl)cc12` [Example 43, 8-[(3-chloroisonicotinoyl)amino]-1-(4-fluorophenyl)-1H-benzo[g]indazole-3-carboxamide], for which the IC50 in test [1] (Table 3) is at most 1000 nM.

`NC(=O)c1nn(-c2ccc(S(N)(=O)=O)cc2)c2c1ccc1ccc(NC(=O)c3ccccc3Cl)cc12` [Example 14, 1-[4-(aminosulfonyl)phenyl]-8-[(2-chlorobenzoyl)amino]-1H-benzo[g]indazole-3-carboxamide]: the IC50 at rhIKK1/IKK2 heterodimer was at most 1000 nM.

Regarding `N#Cc1cccc(C(=O)Nc2ccc3ccc4c(C(N)=O)nn(-c5ccc(S(N)(=O)=O)cc5)c4c3c2)c1` [Example 17, 1-[4-(aminosulfonyl)phenyl]-8-[(3-cyanobenzoyl)amino]-1H-benzo[g]indazole-3-carboxamide], at rhIKK1/IKK2 heterodimer, the IC50 was at most 1000 nM.

As for `NC(=O)c1nn(-c2ccc(S(N)(=O)=O)cc2)c2c1ccc1ccc(NS(=O)(=O)c3cccc(Br)c3)cc12` [Example 15, 1-[4-(aminosulfonyl)phenyl]-8-{[(3-bromophenyl)sulfonyl]amino}-1H-benzo[g]indazole-3-carboxamide], the IC50 on rhIKK1/IKK2 heterodimer lay within 1000 to 10000 nM.

For `Cc1cccc(S(=O)(=O)Nc2ccc3ccc4c(C(N)=O)nn(-c5ccc(S(N)(=O)=O)cc5)c4c3c2)c1` [Example 18, 1-[4-(aminosulfonyl)phenyl]-8-{[(3-methylphenyl)sulfonyl]amino}-1H-benzo[g]indazole-3-carboxamide], at rhIKK1/IKK2 heterodimer, the IC50 is 10000 to 100000 nM.

Turning to `NC(=O)c1nn(-c2ccc(S(N)(=O)=O)cc2)c2c1ccc1ccc(NS(=O)(=O)c3cc(C(F)(F)F)cc(C(F)(F)F)c3)cc12` [Example 24, 1-[4-(aminosulfonyl)phenyl]-8-({[3,5-bis(trifluoromethyl)phenyl]sulfonyl}amino)-1H-benzo[g]indazole-3-carboxamide], the IC50 at rhIKK1/IKK2 heterodimer is 1000 to 10000 nM.

On to `Cc1cccc(C(=O)Nc2ccc3ccc4c(C(N)=O)nn(-c5ccc(S(N)(=O)=O)cc5)c4c3c2)c1` [Example 11, 1-[4-(aminosulfonyl)phenyl]-8-[(3-methylbenzoyl)amino]-1H-benzo[g]indazole-3-carboxamide], for which the IC50 at rhIKK1/IKK2 heterodimer was at most 1000 nM.

Turning to `CC(=O)Nc1ccc2ccc3c(C(N)=O)nn(-c4ccc(S(N)(=O)=O)cc4)c3c2c1` [Example 20, 8-(acetylamino)-1-[4-(aminosulfonyl)phenyl]-1H-benzo[g]indazole-3-carboxamide], the IC50 on rhIKK1/IKK2 heterodimer is at most 1000 nM.

As for `NC(=O)c1nn(-c2ccc(S(N)(=O)=O)cc2)c2c1ccc1ccc(NS(=O)(=O)c3ccc(Cl)c(Cl)c3)cc12` [Example 22, 1-[4-(aminosulfonyl)phenyl]-8-{[(3,4-dichlorophenyl)sulfonyl]amino}-1H-benzo[g]indazole-3-carboxamide], the IC50 at rhIKK1/IKK2 heterodimer is 1000 to 10000 nM.
